The source of these data is PubChem BioAssay AID256 (DTP/NCI, 2004).

The test system of the experiment is CD2F1 mice, L1210 leukemia ip, survival T/C. In words: NCI In Vivo Anticancer Drug Screen. Data for tumor model L1210 Leukemia (intraperitoneal) in CD2F1 (CDF1) mice. As to conditions: endpoint: mean survival time, higher = longer survival. In short, it runs like this:
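Activity against a transplanted murine tumor was judged by comparing the compound group with a vehicle group. The outcome in the treated animals was divided by that in the controls.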

[1] abbreviates: dose: 100.0 mg/kg/injection, schedule: Q04DX003 (ip), vehicle: saline.
Where [2] appears, read: dose: 200.0 mg/kg/injection, schedule: Q04DX003 (ip), vehicle: saline.
[3] abbreviates: dose: 400.0 mg/kg/injection, schedule: Q04DX003 (ip), vehicle: saline.
Setting [4] is: dose: 100.0 mg/kg/injection, schedule: Q01DX001 (ip), vehicle: saline.
Where [5] appears, read: dose: 200.0 mg/kg/injection, schedule: Q04DX003 (ip), vehicle: saline sonified.

The structures appear in SMILES notation. Toxic doses and inconclusive results are not listed.

In the case of `N=c1ccn2c(n1)OC1C(OP(=O)(O)O)C(CO)OC12` (stereo unspecified), the T/C is, setting by setting: (dose: 2.9 mg/kg/injection, schedule: Q01DX009 (ip), vehicle: saline) 101 % of control; (dose: 4.4 mg/kg/injection, schedule: Q03HX024 (oral), vehicle: water) 117 % of control; (dose: 5.8 mg/kg/injection, schedule: Q01DX009 (ip), vehicle: saline) 119 % of control; (dose: 8.0 mg/kg/injection, schedule: Q03HX008 (ip), vehicle: saline) 122 % of control; (dose: 8.0 mg/kg/injection, schedule: Q03HX024 (ip), vehicle: saline) 177 % of control; (dose: 8.7 mg/kg/injection, schedule: Q03HX024 (ip), vehicle: saline) 163 % of control. The T/C is 120 % of control (dose: 11.6 mg/kg/injection, schedule: Q01DX009 (oral), vehicle: water); 120 % of control (dose: 16.0 mg/kg/injection, schedule: Q03HX008 (oral), vehicle: saline); 225 % of control (dose: 16.0 mg/kg/injection, schedule: Q03HX024 (ip), vehicle: saline); 217 % of control (dose: 17.4 mg/kg/injection, schedule: Q03HX024 (ip), vehicle: saline); 163 % of control (dose: 17.4 mg/kg/injection, schedule: Q03HX024 (oral), vehicle: water); 157 % of control (dose: 23.2 mg/kg/injection, schedule: Q01DX009 (ip), vehicle: saline). The T/C runs as follows: (dose: 23.2 mg/kg/injection, schedule: Q01DX009 (oral), vehicle: water) 122 % of control; (dose: 32.0 mg/kg/injection, schedule: Q01DX009 (ip), vehicle: saline) 159 % of control; (dose: 32.0 mg/kg/injection, schedule: Q01DX009 (oral), vehicle: saline) 111 % of control; (dose: 32.0 mg/kg/injection, schedule: Q03HX024 (ip), vehicle: saline) 283 % of control; (dose: 32.0 mg/kg/injection, schedule: Q03HX024 (oral), vehicle: saline) 177 % of control; (dose: 34.8 mg/kg/injection, schedule: Q03HX024 (ip), vehicle: saline) 229 % of control. In addition, the T/C by setting is: (dose: 34.8 mg/kg/injection, schedule: Q03HX024 (oral), vehicle: water) 193 % of control; (dose: 46.4 mg/kg/injection, schedule: Q01DX009 (ip), vehicle: saline) 170 % of control; (dose: 64.0 mg/kg/injection, schedule: Q01DX009 (ip), vehicle: saline) 169 % of control; (dose: 64.0 mg/kg/injection, schedule: Q03HX024 (ip), vehicle: saline) 418 % of control; (dose: 64.0 mg/kg/injection, schedule: Q03HX024 (oral), vehicle: saline) 231 % of control; (dose: 69.6 mg/kg/injection, schedule: Q03HX024 (ip), vehicle: saline) 228 % of control. The T/C runs as follows: (dose: 69.6 mg/kg/injection, schedule: Q03HX024 (oral), vehicle: water) 291 % of control; (dose: 92.8 mg/kg/injection, schedule: Q01DX009 (ip), vehicle: saline) 195 % of control; (dose: 92.8 mg/kg/injection, schedule: Q01DX009 (oral), vehicle: water) 153 % of control; (dose: 128.0 mg/kg/injection, schedule: Q01DX001 (ip), vehicle: saline) 112 % of control; (dose: 128.0 mg/kg/injection, schedule: Q01DX001 (oral), vehicle: saline) 104 % of control; (dose: 128.0 mg/kg/injection, schedule: Q01DX009 (ip), vehicle: saline) 200 % of control. Further, the T/C is 166 % of control (dose: 128.0 mg/kg/injection, schedule: Q01DX009 (oral), vehicle: saline); 157 % of control (dose: 128.0 mg/kg/injection, schedule: Q03HX008 (oral), vehicle: saline); 231 % of control (dose: 128.0 mg/kg/injection, schedule: Q03HX024 (oral), vehicle: saline); 154 % of control (dose: 128.0 mg/kg/injection, schedule: Q04DX003 (ip), vehicle: saline); 111 % of control (dose: 128.0 mg/kg/injection, schedule: Q04DX003 (oral), vehicle: saline); 221 % of control (dose: 139.2 mg/kg/injection, schedule: Q03HX024 (ip), vehicle: saline). Also, the T/C was 273 % of control (dose: 139.2 mg/kg/injection, schedule: Q03HX024 (oral), vehicle: water); 197 % of control (dose: 185.6 mg/kg/injection, schedule: Q01DX009 (oral), vehicle: water); 122 % of control (dose: 256.0 mg/kg/injection, schedule: Q01DX001 (ip), vehicle: saline); 107 % of control (dose: 256.0 mg/kg/injection, schedule: Q01DX001 (oral), vehicle: saline); 201 % of control (dose: 256.0 mg/kg/injection, schedule: Q01DX009 (oral), vehicle: saline); 180 % of control (dose: 256.0 mg/kg/injection, schedule: Q04DX003 (ip), vehicle: saline). For the same compound, the T/C (dose: 278.4 mg/kg/injection, schedule: Q03HX024 (ip), vehicle: saline) is 86 % of control; the T/C (dose: 371.2 mg/kg/injection, schedule: Q01DX009 (oral), vehicle: water) was 174 % of control; the T/C (dose: 512.0 mg/kg/injection, schedule: Q04DX003 (ip), vehicle: saline) is 219 % of control; the T/C (dose: 512.0 mg/kg/injection, schedule: Q04DX003 (oral), vehicle: saline) is 173 % of control; the T/C (dose: 1024.0 mg/kg/injection, schedule: Q01DX001 (ip), vehicle: saline) is 154 % of control; the T/C (dose: 1024.0 mg/kg/injection, schedule: Q04DX003 (ip), vehicle: saline) is 359 % of control. For the same compound, the T/C (dose: 1024.0 mg/kg/injection, schedule: Q04DX003 (oral), vehicle: saline) is 220 % of control.

`O=C1NCCCN1O`: the T/C under setting [1] is 104 % of control, the T/C under setting [2] is 100 % of control and the T/C under setting [3] was 112 % of control.

For the compound `O=[N+]([O-])c1cccc2ccccc12`, the T/C is 101 % of control under setting [1], 103 % of control under setting [2] and 86 % of control under setting [3].

With `C[N+](C)(C)CCC[n+]1ccc(CCn2ccc3ccccc32)cc1`, the T/C under setting [4] was 124 % of control.

Turning to `CS(=O)(=O)c1cccnn1`, the T/C was 93 % of control (dose: 100.0 mg/kg/injection, schedule: Q04DX003 (ip), vehicle: saline sonified); 98 % of control under setting [5]; 96 % of control (dose: 400.0 mg/kg/injection, schedule: Q04DX003 (ip), vehicle: saline sonified).

For `[Cl][Pt][Cl].c1ccc([SeH]c2ccccc2)cc1.c1ccc([SeH]c2ccccc2)cc1`, the T/C by setting is: (dose: 25.0 mg/kg/injection, schedule: Q04DX003 (ip), vehicle: other) 97 % of control; (dose: 50.0 mg/kg/injection, schedule: Q04DX003 (ip), vehicle: other) 102 % of control; (dose: 100.0 mg/kg/injection, schedule: Q04DX003 (ip), vehicle: other) 98 % of control; (dose: 200.0 mg/kg/injection, schedule: Q04DX003 (ip), vehicle: other) 101 % of control; (dose: 400.0 mg/kg/injection, schedule: Q04DX003 (ip), vehicle: other) 100 % of control.

Regarding `C1=C(c2ccc(-c3ccccc3)cc2)Nc2ccccc2S1`, the T/C (dose: 100.0 mg/kg/injection, schedule: Q04DX002 (ip), vehicle: other) was 107 % of control and the T/C (dose: 200.0 mg/kg/injection, schedule: Q04DX002 (ip), vehicle: other) is 107 % of control.

In the case of `Cc1sc(Cc2ccccc2)nc1-c1ccc(N=Cc2ccc(N(CCOS(C)(=O)=O)CCOS(C)(=O)=O)cc2)cc1`, the T/C is 107 % of control (dose: 25.0 mg/kg/injection, schedule: Q01DX009 (ip), vehicle: saline with Tween-80) and 93 % of control (dose: 50.0 mg/kg/injection, schedule: Q01DX009 (ip), vehicle: saline with Tween-80).

With `COc1cc2cc3c4cc(OC)c(OC)cc4cc[n+]3c(C)c2cc1OC`, the T/C is, setting by setting: under setting [4], 120 % of control; (dose: 132.0 mg/kg/injection, schedule: Q04DX003 (ip), vehicle: saline sonified) 122 % of control; (dose: 200.0 mg/kg/injection, schedule: Q01DX001 (ip), vehicle: saline) 122 % of control; under setting [5], 114 % of control; under setting [2], 122 % of control; (dose: 300.0 mg/kg/injection, schedule: Q04DX003 (ip), vehicle: saline sonified) 123 % of control. The T/C (dose: 400.0 mg/kg/injection, schedule: Q01DX001 (ip), vehicle: saline) is 109 % of control and the T/C under setting [3] was 116 % of control.

On to `O=S(=O)(/C(=C\c1ccccc1)c1ccccc1)c1ccccc1`, for which the T/C under setting [1] is 90 % of control; the T/C (dose: 200.0 mg/kg/injection, schedule: Q01DX009 (ip), vehicle: saline) is 90 % of control; the T/C under setting [2] was 92 % of control; the T/C (dose: 400.0 mg/kg/injection, schedule: Q01DX009 (ip), vehicle: saline) is 88 % of control; the T/C under setting [3] was 90 % of control.
